What was measured:
ALK 5 = biological target: T1, ALK 5 (Homo sapiens, UniProt P36897); assay: In vitro kinase assay (ALK5 IC50, LanthaScreen Terbium labeled TR-FRET); type: biochemical; conditions: TGF-β kinase 6 nM, ATP 10 μM, read-out: Enzyme Activity ALK 5 IC50
T1 sequence (P36897 34-503): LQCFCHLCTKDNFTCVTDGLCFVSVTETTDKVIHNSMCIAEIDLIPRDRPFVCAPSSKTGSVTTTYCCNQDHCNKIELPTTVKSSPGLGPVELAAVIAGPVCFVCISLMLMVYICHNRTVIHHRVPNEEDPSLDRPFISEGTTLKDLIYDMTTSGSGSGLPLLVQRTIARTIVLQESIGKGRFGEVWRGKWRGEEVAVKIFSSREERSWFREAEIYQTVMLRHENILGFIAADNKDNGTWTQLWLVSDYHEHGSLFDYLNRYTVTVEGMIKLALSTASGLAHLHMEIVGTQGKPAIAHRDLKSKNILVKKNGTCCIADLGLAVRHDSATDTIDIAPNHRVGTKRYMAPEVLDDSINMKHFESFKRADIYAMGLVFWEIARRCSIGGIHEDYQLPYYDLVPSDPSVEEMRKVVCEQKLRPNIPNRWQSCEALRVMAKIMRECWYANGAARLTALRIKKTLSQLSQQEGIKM
Procedure, shortened: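 LanthaScreen Tb TR-FRET: ALK5 (6 nM) preincubated 10 min with 3-fold diluted compounds, then 10 μM ATP and 200 nM fluorescent PolyGT substrate added for 1 h at room temperature. Stopped with EDTA/Tb antibody; 520/495 nm emission read. IC50 from four-parameter fit versus DMSO and no-enzyme controls.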

AsPC-1 = assay: Cell viability assay (resazurin), AsPC-1; type: cell-based; conditions: Homo sapiens, ASPC1, 72-144 hr
Method: (§1) Different cell lines such as pancreatic, (MIA PaCa-2; ATCC®CRL-1420™ & and Panc-1; CRL-1469™), liver carcinoma (HepG2; ATCC® HB-8065™), lung epithelial carcinoma (A549; ATCC® CCL-185™) and others were seeded in their respective medium (DMEM, Cat #10569044, MEM, Cat #41090036; RPMI, Cat #22400089; all with 10% FBS, Gibco, ThermoFisher) at a cell count of 3000 cells per 100 μl per well in a 96 well edge plate (167425; ThermoFisher). Cells were allowed to grow at 37° C. for 24 hr in 5% CO2 (culture conditions) in a Nuaire incubator (humidified). Serially diluted compounds (100 μl) were added to the culture plate 24 hr later and the cultures were further incubated in culture conditions for specified time depending on doubling time of specific cell line (ranging from 72-144 hr). Experiment was terminated at the completion of incubation time with the drug by replacing the medium with 100 μl of 1 mM of resazurin (R7017; Sigma) prepared in respective culture medium and the plates were further incubated in culture conditions for 4 hr. Fluorescence was then measured using a multimodal plate reader (Biotek Synergy Neo) at an excitation wavelength of 535 nm and emission wavelength of 590 nm to obtain relative fluorescence units. Data analysis was done by subtracting the background fluorescence (only medium blank) value from each reading and then normalizing with the vehicle control (DMSO treated cells) to obtain percent survival/proliferation. Percent survival at different doses was used to calculate IC50 by fitting the curve to the “four-parameter variable slope logistic model” using Prism Graph Pad.

22Rv1 = assay: Cell viability assay (resazurin), 22Rv1; type: cell-based; conditions: Homo sapiens, 72-144 hr
Method: as §1

[1] = test system: mIFN-γ release by activated mouse splenocytes; assay: Mouse splenocyte assay: reversal of TGF-β suppressed, CD3e/CD28 induced mIFN-γ release (ELISA); type: cell-based; conditions: Balb/c splenocytes, anti-CD3e/CD28, mouse TGF-β 10 ng/ml, 72 hr, read-out: Inhibition of mIFN-γ release by activated Mouse Splenocyte, IC50
Method: IC50 values of compounds for reversal of TGF-β suppressed and CD3e/CD28 induced mIFNγ release was determined in mouse splenocytes isolated from Balb/c mice cultured in RPMI, Cat #22400089; 10% FBS, Gibco, ThermoFisher). Mouse splenocytes (2×10^5 cells/well) were activated with Anti-mouse CD3e (2.5 μg/ml, coated overnight at 4° C.; Cat #14-0032-82, eBioscience) and then incubated with serial dilutions of compounds (3 fold, 8 point dose response starting at 3 μM) in the presence of mouse TGF-β (10 ng/ml; Cat #14-8342-80, ebiosciences) for 30 min at 37° C., 5% CO2 in an incubator (cell culture conditions) prior to treating them with Anti-mouse CD28 (0.1 μg/ml soluble; Cat #16-0281-82, eBiosciences). Splenocytes were further incubated under cell culture conditions for 72 hr after which the supernatant was harvested, diluted to 1:50 and ELISA was performed as per the manufacturer's protocol (mIFN-γ kit; Cat #555138 & 550534, BD Biosciences). Plates were read in Biotek plate reader by measuring absorbance at 450 nm.
The reversal of TGF-β suppressed mIFN-γ release by compounds was quantified by first obtaining the amount of mIFN-γ (in pg/ml) released at each concentration of the compound with respect to the mIFN-γ standard. […] The IC50 was calculated by fitting the curve to the “four-parameter variable slope logistic model” using Prism Graph Pad.

Row | IC50 (ALK 5) [nM] | IC50 (AsPC-1) [nM] | IC50 (22Rv1) [nM] | IC50 [1] [nM] | Structure (SMILES)
1 | ≤ 500 | > 30000 | > 30000 | 156 | CC(=O)Nc1cc(Nc2cc(-c3cc(Cl)ccc3F)c(=O)[nH]c2C(C)C)ccn1 [Compound 1.48, N-(4-((5-(5-chloro-2-fluorophenyl)-2-isopropyl-6-oxo-1,6-dihydropyridin-3-yl)amino)pyridin-2-yl)acetamide]
2 | ≤ 500 |  |  | 107 | CC(C)c1[nH]c(=O)c(-c2cc(Cl)ccc2F)cc1Nc1ccnc2[nH]ccc12 [Compound 1.50, 5-((1H-pyrrolo[2,3-b]pyridin-4-yl)amino)-3-(5-chloro-2-fluorophenyl)-6-isopropylpyridin-2(1H)-one]

— patent US20200247812A1 (Integral Biosciences Private Limited, priority 2018, published 2020)
